Test results taken from patent US20260373101A1, “POLYAMINATED FATTY ACIDS FOR USE AS POTENTIATORS OF ANTIBACTERIAL ACTIVITY” (priority 2023, published 2026).
pIC50: −log10 of the molar value. ≈ marks a conversion by molar mass, not a printed value.

Tests used:
Assay type in all cases: cell-based
[1] = test system: E. coli AG-100A; test: Potentiation of known antibiotics (MIC of antibiotic alone or with PAFA); conditions: Escherichia coli, AG100A, 24 h
Description: (§1) 100 μl of a liquid culture medium is deposited in each well of a 96-well microplate, and then inoculated with the bacterial suspension of example 2.1 prepared for the positive control. The volume needed to inoculate is calculated for an OD of 0.01 which corresponds to approximately 5,106 bacteria in each well. In this plate, the first row corresponds to a negative control (200 μl of sterile culture medium in each well), the second row to a positive control (100 μl of sterile culture medium with 100 μl of the bacterial suspension), the third row contains 192 μl of culture medium and 8 μl of an antibiotic solution (10 mg/ml) to be tested in each well. Subsequently, a cascade dilution is performed from this line. Next, 10 μl of a fatty acid solution (10 μM final concentration) is added to each well of the lines. Then, 90 μl of bacterial suspension is added to lines 3 to 8. The MIC of the antibiotic tested is determined after 24 hours of incubation at 37 °C in a humid atmosphere.
(§2) The table 3 below reports the antibacterial activity (MIC in μg/mL) of a combination of some polyaminated fatty acids prepared in example 1 with various antibacterial drugs: doxycycline (DOX), tetracycline (TET), oxytetracycline (OXY) and minocycline (MINO), against various bacterial strains of P. aeruginosa (PA01, PA0509, and PA263), and of E. coli (AG-100 and AG-100A).

[2] = test system: P. aeruginosa PA263; test: as above; conditions: for MIC: Pseudomonas aeruginosa, PA263, 24 h, 24 h
Description: as §1, §2

[3] = test system: E. coli AG-100; test: as above; conditions: Escherichia coli, AG100, 24 h
Description: as §1, §2

[4] = test system: P. aeruginosa PA01; test: as above; conditions: Pseudomonas aeruginosa, PA01, 24 h
Description: as §1, §2

[5] = test system: P. aeruginosa PA0509; test: as above; conditions: Pseudomonas aeruginosa, PA0509, 24 h
Description: as §1, §2

[6] = test system: S. aureus ATCC25923; test: Intrinsic antibacterial activity, standard microdilution (CLSI); conditions: Staphylococcus aureus; S. aureus ATCC25923, compound alone, 24 h, 37 °C
Description: (§3) The bacterial strains used in the examples below are the reference strains P. aeruginosa ATCC27853, E. coli ATCC25922, K. pneumoniae ATCC51296, S. aureus ATCC25923 and E. faecalis ATCC29212. The bacterial strains were previously stored in 15% (v/v) glycerol at −80 °C for cryoprotection. One colony of the fresh culture of each strain was incubated in a culture tube containing 3 ml of Mueller-Hinton broth (MH2) at 37 °C overnight with agitation. This suspension was used for inoculum preparation.
(§4) The antibacterial activity of said polyaminated fatty acid compounds was measured using a standard microdilution test based on Clinical and Laboratory Standards Institute (CLSI) guidelines. This method was slightly modified by increasing the assay volumes to 200 μl so as to improve reproducibility.
(§5) A negative control which corresponds to 2 ml of sterile culture medium and a positive control which corresponds to a mixture of 1980 μl of culture medium and 20 μl of bacterial suspension from a thawed biological strain (biological strains are stored at −80 °C in glycerol) were prepared.
(§6) The tubes were incubated in an incubator shaker “Infors” at 37 °C for 24 hours at 100 round per minute (rpm).
(§7) The polyaminated fatty acid compounds to be tested were prepared in water at a concentration of 10 mM.
(§8) The required volume of the microbial suspension to be inoculated was calculated for an optical density (OD) measured corresponding to a value equal to 0.01 in each well by using a spectrophotometer at 600 nm. In the microplate, the first row corresponded to the negative control (200 μl of sterile culture medium in each well), the second row to the positive control (seeded culture medium), the third row was loaded twice with bacterial suspension and with 8 μl of a given polyaminated fatty acid compound in each well. Subsequently, a half-fold cascade dilution was performed from this line. The first column was used as an inhibition control. A sterile filter was then placed on the microplate allowing the passage of gases but not contaminants. The microplate was incubated at 37 °C in a humid atmosphere for 24 hours. After 24 hours of incubation, an optical density measurement was performed by taking 100 μl of the bacterial suspension diluted in 900 μl of sterile culture medium.
(§9) The medium used was Mueller-Hinton medium (MH) for bacteria. All tests were performed in duplicate.
(§10) Table 1 below reports the intrinsic antibacterial activity of some polymaminated fatty acids prepared in example 1 (MIC in μM) as well as their toxicity towards eucaryotic cells (IC50 in μM).

[7] = test system: P. aeruginosa ATCC27853; test: as above; conditions: Pseudomonas aeruginosa; P. aeruginosa ATCC27853, compound alone, 24 h, 37 °C
Description: as §3, §4, §5, §6, §7, §8, §9, §10

[8] = test system: Chinese hamster ovary cells (CHO-K1); test: Toxicity on mammalian cells, WST1 assay; conditions: Cricetulus griseus; CHO-K1 cell viability, WST1, 24 h
Description: The WST1 assay was used to measure the cytotoxic activity of the polyaminated fatty acid compounds. It is a colorimetric assay that measures viability and cell proliferation rate. It is based on the cleavage of colorless tetrazolium salts WST-1 (4-[3-(4-iodophenyl)-2-(4-nitrophenyl)-2H-5-tetrazolio]-1,3-benzene disulfonate) by mitochondrial dehydrogenases into yellow formazan derivative, quantifiable by spectrophotometry at 420-480 nm.
The WST1 assay was performed on Chinese hamster ovary cells. CHO-K1 cells (ATCC, USA) were maintained in culture in “Mac Coy's 5A” medium supplemented with 10% fetal calf serum, 2 mM L-glutamine and streptomycin penicillin mixture (100 U/ml: 10 μg/ml). Incubation is carried out at 37 °C under CO2 enriched atmosphere (5% by volume) and subcultured every two days.
Cells are transferred to 96-well plates (25,000 cells/ml) in complete “Mac Coy's 5A medium”, and maintained for 24 h at 37 °C under a humid CO2-enriched atmosphere (5% by volume). Increasing concentrations of given polyaminated fatty acid compounds are added to the wells in duplicate assays and 8 growth controls containing cells in medium alone are included in each assay run. After 24 hours at 37 °C (5% CO2), the culture medium is removed, the cells are rinsed in phosphate buffer (PBS) and 50 μL of PBS containing 10% WST1 reagent is added to each well. After 20 minutes of incubation at 37 °C, the results are read by spectrophotometry at 450 nm.
The results are expressed as dose-response relationships, modeled by a non-linear regression analysis using TableCurve software. The 50% Inhibitory Concentration (IC50) represents the concentration of polyaminated fatty acid compound capable of reducing cell viability by 50%.

[9] = test system: E. coli ATCC28922; test: Intrinsic antibacterial activity, standard microdilution (CLSI); conditions: Escherichia coli, ATCC28922, 24 h
[10] = MIC of antibiotic, +PAFA10 (10 μM)
[11] = MIC of antibiotic, +PAFA11 (10 μM)
[12] = MIC of antibiotic, +PAFA14 (10 μM)
[13] = MIC of antibiotic, PA263, +PAFA10 (10 μM)
[14] = MIC of antibiotic, PA263, +PAFA11 (10 μM)
[15] = MIC of antibiotic, PA263, +PAFA14 (10 μM)
[16] = MIC of antibiotic, AG-100, +PAFA10 (10 μM)
[17] = MIC of antibiotic, AG-100, +PAFA11 (10 μM)
[18] = MIC of antibiotic, AG-100, +PAFA14 (10 μM)
[19] = MIC of antibiotic, PA01, +PAFA10 (10 μM)
[20] = MIC of antibiotic, PA01, +PAFA11 (10 μM)
[21] = MIC of antibiotic, PA01, +PAFA14 (10 μM)
[22] = MIC of antibiotic, PA0509, +PAFA10 (10 μM), 24 h
[23] = MIC of antibiotic, PA0509, +PAFA11 (10 μM), 24 h
[24] = MIC of antibiotic, PA0509, +PAFA14 (10 μM), 24 h

Compound: CN(C)c1ccc(O)c2c1C[C@H]1C[C@H]3[C@H](N(C)C)C(O)=C(C(N)=O)C(=O)[C@@]3(O)C(O)=C1C2=O [MINO, minocycline]
- MIC ([1]; Antibiotic alone): 0.25 µg/mL
- MIC [1, 10]: 0.25 µg/mL
- MIC [1, 11]: 0.25 µg/mL
- MIC [1, 12]: 0.004 µg/mL
- fold reduction in MIC (MIC alone / MIC with PAFA) ([2]; PA263, +PAFA11 (10 μM)): 2
- MIC [2, 13]: 4 µg/mL
- MIC [2, 14]: 8 µg/mL
- MIC [2, 15]: 2 µg/mL
- MIC ([2]; PA263, Antibiotic alone): 16 µg/mL
- MIC ([3]; AG-100, Antibiotic alone): 1 µg/mL
- MIC [3, 16]: 0.13 µg/mL
- MIC [3, 17]: 0.13 µg/mL
- MIC [3, 18]: 0.004 µg/mL
- MIC [4, 19]: 2 µg/mL
- MIC [4, 20]: 4 µg/mL
- MIC [4, 21]: 0.5 µg/mL
- MIC ([4]; PA01, Antibiotic alone): 16 µg/mL
- MIC [5]: 1 µg/mL
- MIC [5, 22]: 0.5 µg/mL
- MIC [5, 23]: 0.5 µg/mL
- MIC [5, 24]: 0.063 µg/mL

Compound: CN(C)[C@@H]1C(O)=C(C(N)=O)C(=O)[C@@]2(O)C(O)=C3C(=O)c4c(O)cccc4[C@@](C)(O)[C@H]3[C@H](O)[C@@H]12 [OXY, oxytetracycline]
- MIC ([1]; Antibiotic alone): 1 µg/mL
- MIC [1, 10]: 1 µg/mL
- MIC [1, 11]: 1 µg/mL
- MIC [1, 12]: 0.008 µg/mL
- fold reduction in MIC (MIC alone / MIC with PAFA) ([2]; PA263, +PAFA11 (10 μM)): 2
- MIC [2, 13]: 8 µg/mL
- MIC [2, 14]: 16 µg/mL
- MIC [2, 15]: 4 µg/mL
- MIC ([2]; PA263, Antibiotic alone): 32 µg/mL
- MIC ([3]; AG-100, Antibiotic alone): 1 µg/mL
- MIC [3, 16]: 1 µg/mL
- MIC [3, 17]: 0.13 µg/mL
- MIC [3, 18]: 0.008 µg/mL
- MIC [4, 19]: 8 µg/mL
- MIC [4, 20]: 8 µg/mL
- MIC [4, 21]: 2 µg/mL
- MIC ([4]; PA01, Antibiotic alone): 32 µg/mL
- MIC [5]: 1 µg/mL
- MIC [5, 22]: 0.25 µg/mL
- MIC [5, 23]: 0.5 µg/mL
- MIC [5, 24]: 0.063 µg/mL

Compound: CCCCCCCC/C=C\CCCCCCCC(=O)NCCCNCCCCNCCCN [PAFA1]
- MIC [6]: > 200 µM
- MIC [7]: > 200 µM
- pIC50 [8]: 3.82
- MIC [9]: > 200 µM

Compound: CCCCCCCCCCCCCCCC(=O)NCCCNCCCN [PAFA3]
- MIC [6]: > 200 µM
- MIC [7]: > 200 µM
- pIC50 [8]: 4.25
- MIC [9]: 200 µM (≈ 73.9 µg/mL)

Compound: CCCCCCCCCCCCCCCC(=O)NCCCNCCCCNCCCN [PAFA4]
- MIC [6]: > 200 µM
- MIC [7]: > 200 µM
- pIC50 [8]: 3.57
- MIC [9]: > 200 µM

Compound: CCCCC/C=C\C/C=C\CCCCCCCC(=O)NCCCN [PAFA7]
- MIC [6]: 50 µM (≈ 16.8 µg/mL)
- MIC [7]: > 200 µM
- pIC50 [8]: 3.77
- MIC [9]: 100 µM (≈ 33.7 µg/mL)

Compound: CCCCC/C=C\C/C=C\CCCCCCCC(=O)NCCCNCCCNCCCN [PAFA13]
- MIC [6]: 50 µM (≈ 22.5 µg/mL)
- MIC [7]: 200 µM (≈ 90.2 µg/mL)
- pIC50 [8]: 3.33
- MIC [9]: 100 µM (≈ 45.1 µg/mL)

Compound: CN(C)[C@@H]1C(O)=C(C(N)=O)C(=O)[C@@]2(O)C(O)=C3C(=O)c4c(O)cccc4[C@@](C)(O)[C@H]3C[C@@H]12 [TET, tetracycline]
- MIC ([1]; Antibiotic alone): 1 µg/mL
- MIC [1, 10]: 0.5 µg/mL
- MIC [1, 11]: 0.5 µg/mL
- MIC [1, 12]: 0.008 µg/mL
- fold reduction in MIC (MIC alone / MIC with PAFA) ([2]; PA263, +PAFA11 (10 μM)): 2
- MIC [2, 13]: 8 µg/mL
- MIC [2, 14]: 16 µg/mL
- MIC [2, 15]: 4 µg/mL
- MIC ([2]; PA263, Antibiotic alone): 32 µg/mL
- MIC ([3]; AG-100, Antibiotic alone): 1 µg/mL
- MIC [3, 16]: 0.5 µg/mL
- MIC [3, 17]: 0.25 µg/mL
- MIC [3, 18]: 0.008 µg/mL
- MIC [4, 19]: 8 µg/mL
- MIC [4, 20]: 8 µg/mL
- MIC [4, 21]: 2 µg/mL
- MIC ([4]; PA01, Antibiotic alone): 32 µg/mL
- MIC [5]: 1 µg/mL
- MIC [5, 22]: 0.5 µg/mL
- MIC [5, 23]: 0.25 µg/mL
- MIC [5, 24]: 0.125 µg/mL
